Experimental findings from patent US20250076288A1, “STABILIZED PEPTIDES FOR BIOMARKER DETECTION” (Dana-Farber Cancer Institute, Inc., priority 2018, published 2025) are described below.

Bridges are numbered along the chain shown (N, C = ends). Where no end group is shown, it is not given here. [ ]: non-standard residue; d: D form. The star is where a group is joined. Biotin = O=C1N[C@H]2[C@H](CS[C@H]2CCCCC(=O)*)N1; S5 = C=CCCC[C@](C)(N)C(=O)O; Nle = CCCC[C@H](N)C(=O)O

In assay [1] the test system is actin filaments. Put plainly: Staple scan of TAMRA-tagged stapled Abp140 peptides: actin binding over time by fluorescence microscopy in C2C12 cells. The class given is cell-based. The following applies: C2C12 mouse myoblast cells, TAMRA-tagged peptides (b)-(g) compared. An excerpt:
As a proof of concept, hydrocarbon staples were introduced at different locations in a peptide with known binding attributes for a target protein in order to identify stapled peptides with enhanced stability, cell penetrance, and that retain or enhance target binding. As shown in FIG. 1 (row (a)), a peptide composed of 17 amino acids from the N-terminus of the S. cerevisiae Abp 140 protein that binds to actin filaments was chosen for modification. In the native protein, this peptide has an alpha-helical structure that is a recognition motif for actin. At least one all-hydrocarbon staple was introduced at various locations of the peptide to stabilize the alpha-helical recognition motif to produce stapled peptides markers for actin (see rows (b)-(g) in FIG. 1; the location of hydrocarbon staples in the peptide sequence is demarcated by an X, wherein X is(S)-2-(4′-pentenyl)alanine). […] After 3 hours of incubation, cells were washed with PBS to remove extra peptide reagent and fluorescence microscopy was then used to assess actin binding by the peptides, and to determine overall peptide stability. […] The stapled peptide that retained actin binding over the longest period of time, as determined by fluorescence in cells, was selected as having hydrocarbon staple(s) at the optimal sequence locations for improving peptide stability for biomarker detection.

For assay [2], the system named is actin filaments. Put plainly: Labeling of actin filaments in live C2C12 cells, confocal microscopy. It counts as cell-based, mouse. As to conditions: 10 μM, room temperature, 2 hours, then 50 μM chloroquine for 30 minutes. As to the method: To determine if stabilized peptides can be used to detect biomarkers in live cells, stapled peptide (g) (see FIG. 1, row (g)) was used to label actin filaments in mouse myoblast cells (C2C12 cell line, ATCC® CRL-1772™). Initially, cells were seeded at a density of 10,000 cells/well in 96 well plates in DMEM media and incubated overnight at 37° C. […] After washing the cells with phosphate-buffered saline (PBS), Hoechst DNA dye was then added to the cells, which were further incubated at room temperature for 30 minutes before being washed again to remove extra dye. Afterwards, confocal microscopy was used to determine the intracellular localization of the fluorescent-tagged stapled peptide.
This technology can be applied for, e.g., to FACS and other fluorescent high-throughput screening methods to for example detect overexpression of biomarkers in fixed and living cells.

Assay [3] deals with actin filaments. Put plainly: Labeling of actin filaments in fixed C2C12 cells, confocal microscopy. It counts as cell-based, mouse. On the procedure:
Stapled peptide (g) was also used to detect actin filaments in fixed C2C12 cells. Cells were seeded in 96 well plates at a density of 10,000 cells/well in DMEM media and incubated overnight at 37° C. The cells were fixed using 4% paraformaldehyde in PBS for 20 minutes and then permeabilized using 0.3% Triton-X100 in PBS for 10 minutes. This was followed by the addition of Hoechst DNA dye to the cells to stain nuclei, and FITC-phalloidin (Acti-stain™ 488 phalloidin, Cat. #PHDG1-A, Cytoskeleton, Inc.) to label F actin. After rinsing the cells with PBS, serial dilutions of each peptide were transferred to the cells, and the cells were incubated at 37° C. for 30 minutes. Confocal microscopy was then used to detect the cellular localization of the stapled peptide (g) fused to a fluorescent tag.

The test system of assay [4] is actin. Put plainly: Visualization of actin in U2OS cells with TAMRA- and biotin-labeled stapled peptides. The class given is cell-based.
For assay [5], the system named is actin. The assay can be described thus: Actin visualization in fixed murine tissues. The class given is cell-based, mouse. The following applies: fixed murine heart, lower extremity and tongue, FIG. 5.
Assay [6] concerns actin. Put plainly: Labeling of actin in live zebrafish, confocal microscopy. It counts as in vivo. The following applies: 10 μM, room temperature, 2 hours, then 50 μM chloroquine for 30 minutes; skin; FIG. 9. On the procedure:
In a further application, a lead TAMRA-labeled stapled actin-binding peptide was incubated with live zebrafish (10 μM, room temperature, 2 hours), followed by treatment with 50 μM chloroquine for 30 minutes to achieve complete endosomal release and was immediately imaged by confocal microscopy (FIG. 9).

In the case of “peptide (f): hydrocarbon-stapled Abp140 N-terminal 17-mer, TAMRA-tagged; selected as most stable stapled peptide marker for actin ([Nle]GVADLIKKFE[S5]ISK[S5]EK(TAMRA); staple 12-16)”, the “period of time over which actin binding is retained, as determined by fluorescence in cells” value in assay [1] is on record as “exhibited actin binding for the longest period of time”.

“peptide (g): peptide (f) with a serine to alanine substitution (S14A); Lysine(TAMRA)-tagged stapled actin-binding peptide ([Nle]GVADLIKKFE[S5]IAK[S5]EK(TAMRA); staple 12-16)”: the “cell entry and labeling of actin filaments in live cells” value in assay [2] was “entered live cells and selectively bound to and labeled actin filaments”. Further, the “labeling of actin filaments in fixed cells” value in assay [3] (C2C12 cells fixed with 4% paraformaldehyde, permeabilized with 0.3% Triton-X100, confocal microscopy) is “selectively bound to and labeled actin filaments”. Also, the “co-localization with the FITC-phalloidin-labeled actin filament network” value in assay [3] (fixed C2C12 cells) is reported as “co-localized with the actin filament network”. Besides, in assay [4] (TAMRA label, FIG. 4A), the “actin detection in U2OS cells, direct fluorescence detection” value is “robust actin detection was observed”. Further, the “actin visualization in mouse tissues” value in assay [5] was “robust actin visualization in heart, lower extremity, and tongue specimens”. The “labeling of actin in live zebrafish” value in assay [6] is reported as “can label actin in the skin of live zebrafish”.

Take “(h): stapled actin-binding peptide with alanine substitution and Lysine(Biotin) ([Nle]GVADLIKKFE[S5]IAK[S5]EK(Biotin); staple 12-16; not fully specified)”: in assay [4] (biotin label, fixed cells, FIG. 4B), the “actin detection in U2OS cells, indirect detection with fluorescently-labeled streptavidin” value was “robust actin detection was observed”.
